According to US11752155B2, “Treatment of autism spectrum disorders, obsessive-compulsive disorder and anxiety disorders” (Rugen Holdings (Cayman) Limited, priority 2016, dated 2023):
Where two headings read alike, the source gives them in different places.

Key:
Type in all cases: in vivo, mouse
[1] = Clearance of compound from plasma after IP dosing in mice
[2] = test system: Shank3 complete knockout mice; assay: Grooming Test in Shank3 complete knockout mice; conditions: for acute effect on grooming: single IP dose, 20 min postdose, Day 1
Protocol: Animals. The breeding conditions and genotyping methods for Sapap3 and Shank3 complete knockout mice were the same as described in Welch et al. (Nature 2007, 448(7156):894-900) and in Wang et al. (Nat. Commun. 2016, 7:11459), respectively. Homozygous knockout mice and littermate wild type mice of both genders were used at 4 to 8 weeks of age.
Compound formulation. The test compounds were dissolved in a small volume of dimethyl sulfoxide (DMSO) and diluted in an aqueous solution of 2-hydroxypropyl-beta-cyclodextrin (HP-β-CD) and administered IP. Dosing volume was 10 mL/kg. At 20 minutes after dosing, the mice were subjected to the behavioral test as described below.
Testing room and apparatus. The test room was maintained under the same conditions as the colony rooms, except the mice were housed in conventional shoe-box cages with food, water, and nesting materials. Animals were housed in the test room 48-72 hours prior to testing, in order to permit the mice to fully acclimate to the test room and conventional housing cages before testing. Tests were conducted in white polyvinyl-fluoride hard-sided foam test arenas (20×20×12 cm). The arenas were indirectly illuminated by dimmable LED light bars placed level with the arena floor and 30 cm away from the external wall of the test arena. This permitted the internal area of the arena to be evenly illuminated at approximately 40 lux. The illumination levels where the mice were housed before testing were about 80-100 lux.
Testing procedure. Mice were carefully placed into the test arenas 20 minutes after compound administration. Animals were given free exploration of the arena for 10 minutes, after which they were gently sprayed with 4 quick pumps of a water mist (total water volume approximated 1.5-1.7 mL). Mice were then allowed an additional 10 minutes to self-groom and engage in other behaviors before being removed from the arena. All tests were videotaped using cameras mounted above the testing arena and were saved to digital media format using Noldus Media Player software (Noldus Information Technologies, Leesburg, Va.). The mice were only tested once in the acute studies and were repeatedly tested in the sustained effect studies.
Quantitation of grooming bouts. Analyses of the video recordings were conducted with TopScan behavioral recognition software (Cleversys Inc, Reston, Va.). Configurations were made which scored time spent in grooming. […] These settings permitted automated scoring of grooming by TopScan that corresponded well to manual-scoring of these behaviors by a trained blinded observer using Noldus Observer XT9 (Noldus Information Technologies), with an average corrected kappa of 0.925 (range 0.807-0.983).
Statistical analyses. Data are presented as means and standard error of the means (SEMs). Analyses were conducted using SPSS 23 (IBM SPSS Statistics, Chicago, Ill.). Time spent in grooming behavior (seconds) over the 10-minute pre- and post-spray time blocks were analyzed with repeated measures analyses of variance (RMANOVA). The pre- and post-spray times were used for the within subject effects and the genotype and compound treatment condition were used as the between subject effects. In sustained effect studies, days were also used for a within subject effect. […]
The amount of time mice spent grooming in a novel environment was quantified in Shank3 complete knockout mice (Wang et al. Nat. Commun. 2016, 7:11459) and their wild type littermates for 10 minutes. […]

[3] = test system: wild type mice (male NMRI); assay: Marble Burying Test in wild type mice
How it was run: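 Male NMRI mice, 12 per group, received compound in 0.5% DMSO/4% HP-β-CD PO or IP 20 min before test. Marbles (25) buried two-thirds or more in sawdust were counted over a blind 30-min session. Groups were compared with vehicle by Kruskal-Wallis then Mann-Whitney U.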

[4] = single dose 3 mg/kg IP on Day 1
[5] = Mus musculus, ip, read-out: Percent Change in marbles buried relative to vehicle
[6] = Mus musculus, po, read-out: Percent Change in marbles buried relative to vehicle

Question: For FC(F)c1ccc(C(F)(F)CN2CCC(Nc3ncnc4[nH]ccc34)CC2)cc1 [C-179^A′], which “time to clearance of the compound from plasma” value [1] is on record?
Answer: about 8 hours

Question: And the “acute effect on grooming” value [2]?
Answer: significantly reduced grooming

Question: What about the “significantly reduced grooming through Day” value ([2]; single dose 1 mg/kg IP on Day 1) of the same compound?
Answer: 33 days

Question: What about the “significantly reduced grooming through Day” value [2, 4] of the same compound?
Answer: 33 days

Question: What about the change in vivo at 0.316 mg/kg [3, 5] of the same compound?
Answer: 9%

Question: What about the change in vivo at 3 mg/kg [3, 5] of the same compound?
Answer: -96%

Question: What about the change in vivo at 10 mg/kg [3, 5] of the same compound?
Answer: -94%

Question: What about the change in vivo at 1 mg/kg [3, 6] of the same compound?
Answer: -1.1%

Question: And the change in vivo at 1.78 mg/kg ([3]; Mus musculus, po, 1.78 mg/kg, read-out: Percent Change in marbles buried relative to vehicle)?
Answer: -81%

Question: What about the change in vivo at 3 mg/kg [3, 6] of the same compound?
Answer: -81%

Question: What about the change in vivo at 10 mg/kg [3, 6] of the same compound?
Answer: -99%

Question: For Cc1ccc(COC(=O)N2CC[C@H](CNc3cnc(C)cn3)C(F)(F)C2)cc1 [E1-21.26^B′], which “time to clearance of the compound from plasma” value [1] is on record?
Answer: about 8 hours

Question: What about the change in vivo at 0.316 mg/kg [3, 5] of the same compound?
Answer: -14%

Question: What about the change in vivo at 3 mg/kg [3, 5] of the same compound?
Answer: -97%

Question: What about the change in vivo at 10 mg/kg [3, 5] of the same compound?
Answer: -96%

Question: What about the change in vivo at 1 mg/kg [3, 6] of the same compound?
Answer: 8%

Question: And the change in vivo at 3 mg/kg [3, 6]?
Answer: -41%

Question: And the change in vivo at 10 mg/kg [3, 6]?
Answer: -78%

Question: With Cc1ccc(COC(=O)N2CC[C@H](CNc3ncccn3)C(F)(F)C2)cc1 [E1-22.2^B′] as the compound, how does the “acute effect on grooming” value [2] read?
Answer: significantly reduced grooming

Question: And the “significantly reduced grooming through Day” value [2, 4]?
Answer: 33 days

Question: And the change in vivo at 0.03 mg/kg ([3]; Mus musculus, ip, 0.03 mg/kg, read-out: Percent Change in marbles buried relative to vehicle)?
Answer: -9%

Question: And the change in vivo at 0.1 mg/kg [3, 5]?
Answer: -13%

Question: And the change in vivo at 0.3 mg/kg [3, 5]?
Answer: -92%

Question: And the change in vivo at 0.316 mg/kg [3, 5]?
Answer: -68%

Question: And the change in vivo at 3 mg/kg [3, 5]?
Answer: -93%

Question: And the change in vivo at 10 mg/kg [3, 5]?
Answer: -97%

Question: What about the change in vivo at 0.1 mg/kg [3, 6] of the same compound?
Answer: 14%

Question: And the change in vivo at 0.3 mg/kg [3, 6]?
Answer: 16%

Question: And the change in vivo at 3 mg/kg [3, 6]?
Answer: -88%

Question: And the change in vivo at 10 mg/kg [3, 6]?
Answer: -99%

Question: And the “efficacy in the Marble Burying Test” value ([3]; lowest test concentration of 1 mg/kg, IP)?
Answer: fully efficacious
